Counter-ions that a name gives are not always drawn.
Experiment: in vitro
Settings: rat, gh3-tre-luc cells

Compound | CC50 at 24 h (AC50 (uM) modified / 1000) [µM] | other results
CCCCN1C(=O)[C@@H]([C@H](O)C2CCCCC2)NC(=O)C12CCN(Cc1ccc(Oc3ccc(C(=O)O)cc3)cc1)CC2 [Aplaviroc hydrochloride] | 77.3 | 
CCC(C)(C)OC(=O)N[C@@H](Cc1c[nH]c2ccccc12)C(=O)N[C@@H](CCSC)C(=O)N[C@@H](CC(=O)O)C(=O)N[C@@H](Cc1ccccc1)C(N)=O [Amogastrin] | > 50 | 
OC[C@H]1O[C@@H](O[C@H]2[C@H](O)[C@@H](O)C(O)O[C@@H]2CO)[C@H](O)[C@@H](O)[C@H]1O (some centres unmarked) [Lactose] | > 90 | 
CCOc1cc(C(C)(C)C)ccc1C1COC(c2c(F)cccc2F)=N1 (centres unmarked) [Etoxazole] | 17.5 | 
CCOC(=O)OC(C)OC(=O)[C@@H]1N2C(=O)[C@@H](NC(=O)[C@H](N)c3ccccc3)[C@H]2SC1(C)C (some centres unmarked) [Bacampicillin hydrochloride] | > 20 | 
CCCOC(=O)c1ccc(C(=O)OCCC)nc1 [Dipropyl 2,5-pyridinedicarboxylate] | > 90 | 
CC(=O)Nc1c(I)cc(I)c(C(=O)O)c1I [Acetrizoic acid] | > 50 | 
CN(C)C(=O)Cl [Dimethylcarbamoyl chloride] |  | CC50 at 24 h (AC50 (uM) modified / 1000, Tox21_110001=Tox21_201334, viability, 1 nM T3 present, 24 h): > 90 µM
Nc1nc2ncc(CNc3ccc(C(=O)N[C@@H](CCC(=O)O)C(=O)O)cc3)nc2c(=O)[nH]1 [Folic acid] | > 90 | 
COc1cc(N)c(Cl)cc1C(=O)NC1CN2CCC1CC2 (centres unmarked) [Zacopride hydrochloride] | > 50 | 
CN(C)c1ccccc1 [N,N-Dimethylaniline] |  | CC50 at 24 h (AC50 (uM) modified / 1000, Tox21_110001=Tox21_201813, viability, 1 nM T3 present, 24 h): > 90 µM; CC50 at 24 h (AC50 (uM) modified / 1000, Tox21_110001=Tox21_300036, viability, 1 nM T3 present, 24 h): > 100 µM
NCCc1ccc(O)c(O)c1 [Dopamine hydrochloride] | 55.3 | 
CC(=O)C(Cl)(Cl)Cl [1,1,1-Trichloropropanone] | 13.3 | 
CNC(=O)[C@H]1O[C@@H](n2cnc3c(NCc4cc(Cl)ccc4OCc4cc(C)no4)ncnc32)[C@H](O)[C@@H]1N [CP-608039] | > 90 | 
C=COCC1CCC(CO)CC1 (centres unmarked) [{4-[(Ethenyloxy)methyl]cyclohexyl}methanol] | > 90 | 
CCCCC(CC)CN1CN(CC(CC)CCCC)CC(C)(N)C1 (centres unmarked) [Hexetidine] | > 20 | 
FCOC(C(F)(F)F)C(F)(F)F [Sevoflurane] | > 50 | 
Cc1cc2nc3c(=O)[nH]c(=O)nc-3n(C[C@H](O)[C@H](O)[C@H](O)CO)c2cc1C [Riboflavin] | > 90 | 
Cc1scc2c1N(C(=O)CN1CCN(C)CC1)c1ccccc1NC2=O [Telenzepine] | > 50 | 
CCC(CO)(CO)[N+](=O)[O-] [2-Ethyl-2-nitro-1,3-propanediol] | > 90 | 
Cc1cc(C)cc(C)c1 [1,3,5-Trimethylbenzene] | > 90 | 
COC(=O)CCS [3-Mercaptopropionic acid methyl ester] | > 90 | 
CCOC(=O)O[C@]1(C(=O)COC(=O)CC)CC[C@H]2[C@@H]3CCC4=CC(=O)C=C[C@]4(C)[C@H]3[C@@H](O)C[C@@]21C [Prednicarbate] | > 20 | 
Cc1ccc(S(=O)(=O)N[C@@H](CCCCN)C(=O)CCl)cc1 [N-alpha-p-Tosyl-L-lysine chloromethyl ketone hydrochloride] | 15 | 
Nc1ccn([C@@H]2CO[C@H](CO)O2)c(=O)n1 [Troxacitabine] | > 50 | 
CCCCCN(C)CCC(O)(P(=O)(O)O)P(=O)(O)O [Ibandronate sodium] | > 50 | 

Compound | CC50 at 24 h (AC50 (uM) modified / 1000) [µM] | other results
Cc1ccc(N)c(C)c1 [2,4-Dimethylaniline] | > 90 | 
CCO[Si](CCCS)(OCC)OCC [3-(Triethoxysilyl)propane-1-thiol] | > 90 | 
CCC[N+](=O)[O-] [1-Nitropropane] |  | CC50 at 24 h (AC50 (uM) modified / 1000, Tox21_110001=Tox21_202289, viability, 1 nM T3 present, 24 h): > 90 µM
COC(=O)[C@@H](N)CS [Methyl L-cysteinate hydrochloride] | > 50 | 
CC(=O)N(CC(O)CO)c1c(I)c(C(=O)NCC(O)CO)c(I)c(C(=O)NCC(O)CO)c1I (mixture of isomers) [Iohexol] | > 50 | 
CCC(C)C(=O)OCCc1ccccc1 (centres unmarked) [2-Phenylethyl 2-methylbutanoate] | > 90 | 
O=C(CCCN1CCC(C(=O)c2ccc(F)cc2)CC1)c1ccc(F)cc1 [Lenperone] | > 50 | 
Cc1ccc([N+](=O)[O-])cc1Cl [2-Chloro-1-methyl-4-nitrobenzene] | > 90 | 
CC(=O)OCC(=O)[C@@]12N=C(C)O[C@@H]1C[C@H]1[C@@H]3CCC4=CC(=O)C=C[C@]4(C)[C@H]3[C@@H](O)C[C@@]12C [Deflazacort] | > 90 | 
CCN(CC)C(=O)C(Cl)=C(C)OP(=O)(OC)OC [Phosphamidon] |  | CC50 at 24 h (AC50 (uM) modified / 1000, Tox21_110001=Tox21_112409, viability, 1 nM T3 present, 24 h): > 50 µM; CC50 at 24 h (AC50 (uM) modified / 1000, Tox21_110001=Tox21_202100, viability, 1 nM T3 present, 24 h): > 90 µM
O=C1c2c(O)ccc(O)c2C(=O)c2c(NCCNCCO)ccc(NCCNCCO)c21 [Mitoxantrone dihydrochloride] | 0.988 | 
COC(=O)NCCC[Si](OC)(OC)OC [Methyl [3-(trimethoxysilyl)propyl]carbamate] | > 90 | 
CCCNCCC [Dipropylamine] | > 90 | 
O=c1[nH]c(=O)n([C@H]2CCCO2)cc1F [Tegafur] | > 90 | 
CC(C)(C)[C@H](O)[C@H](Cc1ccc(Cl)cc1)n1cncn1 (racemic) [Paclobutrazol] | > 90 | 
CCC1(C)CC(=O)NC(=O)C1 [Bemegride] |  | CC50 at 24 h (AC50 (uM) modified / 1000, Tox21_110001=Tox21_110352, viability, 1 nM T3 present, 24 h): > 20 µM
CC(=O)Nc1ncc([N+](=O)[O-])s1 [Nithiamide] | > 50 | 
CC(=O)OCC1=C(C(=O)O)N2C(=O)[C@@H](N)[C@H]2SC1 [7-Aminocephalosporanic acid] | > 20 | 
CCN(CC)CCOC[C@H]1O[C@@H](O)[C@H](OCCN(CC)CC)[C@@H](O)[C@@H]1O [Diethylaminoethyl-sephacel] | > 50 | 
O=P(O)(O)c1ccccc1 [Phenylphosphonic acid] |  | CC50 at 24 h (AC50 (uM) modified / 1000, Tox21_110001=Tox21_302060, viability, 1 nM T3 present, 24 h): > 90 µM
COC(=O)c1ccccc1Cl [Methyl 2-chlorobenzoate] | > 90 | 
CC(C)(C)C(=O)CC(=O)C(C)(C)C [Dipivaloylmethane] | > 100 | 
CCOc1cc([N+](=O)[O-])c(OCC)cc1N1CCOCC1 [4-(2,5-Diethoxy-4-nitrophenyl)morpholine] | > 90 | 
SC1CCCC1 [Cyclopentanethiol] | > 90 | 
CC=C(C)C#N [2-Methyl-2-butenenitrile] | > 90 | 
CC(=O)OCC=C(C)C [3,3-Dimethylallyl acetate] | > 60 | 

Compound | CC50 at 24 h (AC50 (uM) modified / 1000) [µM] | other results
Cc1cc(SC2=C(O)C[C@@](CCc3ccc(N)cc3)(C(C)C)OC2=O)c(C(C)(C)C)cc1CO [CI-1029] | > 90 | 
CN(CC1(C)CCCO1)S(=O)(=O)c1ccc(Cl)c(S(N)(=O)=O)c1 (centres unmarked) [Mefruside] | > 50 | 
Cc1ccc(C)c(C)c1 [1,2,4-Trimethylbenzene] | > 90 | 
Cc1ccccc1C(=O)N1CC/C(=N\OS(=O)(=O)O)c2ccc(Cl)cc21 [Alilusem potassium] | > 50 | 
Cc1c(N)cccc1Cl [3-Chloro-2-methylaniline] | > 90 | 
O=C1CCCC1 [Cyclopentanone] | > 90 | 
COP(=O)(OC)OC(c1ccc(Cl)cc1)P(=O)(OC)OC (centres unmarked) [Mifobate] | > 50 | 
C[CH2][Ge]([Cl])([CH2]C)[CH2]C [Triethylgermanium chloride] | > 90 | 
Cc1ccc(N/N=c2\c(=O)cc/c(=N/Nc3ccc(S(=O)(=O)O)cc3)c2=O)c(C)c1 [C.I. Acid Orange 24, monosodium salt] | 59.4 | 
CCCCCCCCC(=O)Cl [Nonanoyl chloride] | > 90 | 
CCOC(=O)[C@H](CCc1ccccc1)N[C@@H](C)C(=O)N1C(=O)N(C)C[C@H]1C(=O)O [Imidapril hydrochloride] | > 50 | 
Fc1ccccc1-c1ccccc1 [2-Fluorobiphenyl] | > 90 | 
COc1ccccc1[N+](=O)[O-] [1-Methoxy-2-nitrobenzene] | > 90 | 
SCCCCCCCCS [1,8-Octanedithiol] | > 90 | 
OC[C@H](Cc1cccc(O)c1)[C@H](CO)Cc1cccc(O)c1 [(-)-Enterodiol] | > 90 | 
CCCCCCC(=O)CCCCCC/C=C/C[C@@H](O)[C@H](O)[C@@](N)(CO)C(=O)O [Myriocin] | > 50 | 
CN(C)CCCN1c2ccccc2CCc2ccc(Cl)cc21 [Clomipramine hydrochloride] | 7.67 | 
CCC1=C(C)CN(C(=O)NCCc2ccc(S(=O)(=O)NC(=O)N[C@H]3CC[C@H](C)CC3)cc2)C1=O [Glimepiride] | > 50 | 
CCC1(c2cccc(O)c2)CCCCN(C)C1 (centres unmarked) [Meptazinol hydrochloride] |  | CC50 at 24 h (AC50 (uM) modified / 1000, Tox21_110001=Tox21_110665, viability, 1 nM T3 present, 24 h): > 20 µM
CCC(C)c1cccc(C(C)CC)c1O (centres unmarked) [2,6-Di(butan-2-yl)phenol] | 72.2 | 
CC(C)=CCCC(C)C=O (centres unmarked) [2,6-Dimethylhept-5-enal] | > 90 | 
S=C(S)NCCNC(=S)S [Nabam-sodium] | > 90 | 
COc1cc(C(=O)NS(=O)(=O)c2ccccc2C)ccc1Cc1cn(C)c2ccc(NC(=O)OC3CCCC3)cc12 [Zafirlukast] | 28.8 | 
CC(=O)Nc1cccc(C)c1 [N-Acetyl-m-toluidine] | > 90 | 
O=C=Nc1ccc(Cl)c(Cl)c1 [3,4-Dichlorophenyl isocyanate] | > 90 | 
COC(=O)C(Cl)C(=O)OC [Dimethyl chloromalonate] | > 50 | 

From article PMC6792352, “Limited Chemical Structural Diversity Found to Modulate Thyroid Hormone Receptor in the Tox21 Chemical Library” (Environmental Health Perspectives, 2019)
